# Measured values as given in patent publication US20250281474A1, “PHARMACEUTICAL COMPOSITION FOR TREATING COGNITIVE DECLINE OR FOR TREATING OVERWEIGHTNESS OR OBESITY” (University of the Ryukyus, priority 2021, published 2025).
# Columns and labels:
# HFD-fed mice = assay: MRI volumetric analysis of mouse hippocampus; format: in vivo; conditions: HFD-fed mice n=8 treated with PER; left CA1 and DG, right CA1, CA3 and DG
# Source text: Anatomical brain images of 8 ex vivo mice with CD, HFD, PER treatment were acquired using a Bruker BioSpec 117/11 11.75 Tesla MRI scanner (Bruker BioSpin GmbH, Ettlingen, Germany). MPRAGE (three-dimensional (3D)-prepared rapid gradient-echo) sequences were acquired as high resolution 100 μm iso-voxel images for voxel-based morphometry (matrix size: 280×220×220; field of view: 28×22×22 mm, repetition time: 2000 ms, echo time: 1.78 ms, flip angle: 12 degrees, inversion time: 800 ms, echo train length: 13, average number of times: 2).
# A region of interest was drawn in the acquired data image using a rapid acquisition protocol by relaxation enhancement (RARE) sequence (matrix size: 280×220×220, field of view: 28×22×22 mm; repeat time: 1500 ms; echo time: 25 ms; flip angle: 180°). The MPRAGE image and the RARE image were simultaneously acquired by one single scan.
# MRI data acquisition of ex vivo mice was acquired by simultaneously placing the head parts of four mice fixed with PBS into an MRI coil. Brains of four mice were confirmed using raw MRI data. […]
# The volume of subfields of the hippocampus (CA1, CA2, CA3, DG, EC) was calculated using the ROI file (31, 33, 51, 52). […]
# NMDAR = assay: Ca2+ imaging of hippocampal brain slices, NMDA+glycine application, ob/ob mice; conditions: ob/ob mice, PER administration; p<0.05
# [1] = tested on: AMPAR subunits GluA1-4 mRNA; assay: qRT-PCR of AMPAR/NMDAR subunits in hippocampal regions, Ca2+ permeability index; format: in vivo, mouse
# Method: After preparing and collecting hippocampal slices, CA1, CA2, CA3, DG, and EC regions were separated from hippocampal slices using a dissection knife from […] background mice and ob/ob mice, respectively. The CA1, CA2, CA3, DG, and EC regions of mice were separated and immediately lysed in disposable homogenization tube BioMasher2 (trademark) (Nippi, Tokyo, Japan) using 0.5 mL of TRIzol RNA isolation reagent (Thermo Fisher Scientific, Wilmington, DE). Total RNA was individually extracted from each region according to the remaining protocol of the TRIzol RNA isolation reagent provided by the manufacturer (Thermo Fisher Scientific, Wilmington, DE). 1 μg of total RNA was reverse transcribed using PrimeScript RT Reagent Kit (Takara, Shiga, Japan). An aliquot of the obtained cDNA was diluted 1:10 and added to a master mix of TB Green Premix ExTaq (Takara, Shiga, Japan), and real-time PCR was performed using a 7500 Fast Real-Time PCR system (Applied Biosystems, Foster City, CA, USA) according to the manufacturer's instructions. The conditions for real-time PCR were as follows. 40 cycles of 95° C. for 30 seconds, then 95° C. for 5 seconds and 60° C. for 34 seconds. The fluorescence intensity was measured for each annealing step and the threshold cycle time was determined using 7500 software. In addition, relative expression levels of β-actin were normalized to respective controls (vehicle group). The relative expression level of the target gene in each sample was determined using a standard curve and further normalized to the expression level of R-actin of the same sample. The sequences of primers and probes for these genes are shown in Supplemental Table 2. The “ratio of GluA2 mRNA amount/(GluA1+GluA3+GluA4 mRNA amount” was used as a Ca^2+ permeability index.
# GluA2 is edited at the Q/R site within the reentry M2 membrane loop region by adenosine deaminase (ADAR2), which acts on RNA type 2 involved in editing double-stranded RNA from adenosine (A) to inosine (I) (review, refer to 15, 16 and 17). Attempts were made to determine real-time quantitative reverse transcription polymerase chain reaction (qRT-PCR), subunit composition of AMPAR and NMDAR. Total RNA in hippocampal subregions (CA1, CA3, DG, EC) was separated, and quantitative analysis of mRNA of GluA1, GluA2, GluA3, and GluA4 for AMPAR, and GluN1, GluN2A, GluN2B, and GluN2C for NMDAR was performed by qRT-PCR. […] Based on the mRNA amount of each subunit, the ratio of GluA2 to other GluA subunits (FIG. 2B) was determined. The ratio was defined as a Ca^2+ permeability index.
# ob/ob mice = assay: Immunohistochemical analysis (MAP2, GluA1, GluA2, DCX), ob/ob mice; format: in vivo, mouse; conditions: ob/ob mice with PER
# Source text: Mouse brains were perfusion-fixed with 4% paraformaldehyde, embedded in paraffin, and cut into 4 micrometer thick sections to be used for immunohistochemical analysis of monoclonal antibodies against DCX (E-6 monoclonal, 1:50, Santa Cruz Biotechnology Inc, Dallas, USA), MAP2ab (AP-20 monoclonal, 1:100, SIGMA-ALDRICH, St. Louis, USA), GluA1 (AB1540 polyclonal, 1:100, EMD Millipore Corp., Burlington, USA), and GluA2 (AB 1768-1 polyclonal, 1:5, EMD Millipore Corp., Burlington, USA).
# The immunostained region in each of the expression regions of MAP2, GluA1, and GluA2 was acquired using a ZVI format AxioVision (Carl Zeiss, Germany) microscope (objective lens 20×). Generation of data image processing with image segmentation was performed using machine learning with ZEN Intelliesis software. 1000 or more cells were examined in each group. One-way variance analysis was used for testing variance among the three groups excluding data of 3SD or higher. Then, the following number of samples was used.
# Similar to the HFD mouse model, ob/ob mice had reduced dendritic arbors integrity as determined by MAP2 staining (FIG. 12). […] In addition, the maturation of the protrusions of DCX-positive cells progressed by treatment with PER for 12 weeks (FIG. 14).
smiles,measurement,setting,value
"N#Cc1ccccc1-c1cc(-c2ccccn2)cn(-c2ccccc2)c1=O [PER, 3-(2-cyanophenyl)-5-(2-pyridyl)-1-phenyl-1,2-dihydropyridine-2-one]",hippocampal volume (printed brain weight) by volumetric analysis,HFD-fed mice,significantly restored
same,NMDAR function in all hippocampal subregions,NMDAR,restoration
same,Ca2+ permeability index CA1,"[1]; GluA2 mRNA/(GluA1+GluA3+GluA4 mRNA), HFD-fed mice with PER, CA1, N=5",0.29 ± 0.11 (N = 5)
same,Ca2+ permeability index CA3,"[1]; GluA2 mRNA/(GluA1+GluA3+GluA4 mRNA), HFD-fed mice with PER, CA3, N=5",0.26 ± 0.10 (N = 5)
same,Ca2+ permeability index DG,"[1]; GluA2 mRNA/(GluA1+GluA3+GluA4 mRNA), HFD-fed mice with PER, DG, N=5",0.22 ± 0.06 (N = 5)
same,Ca2+ permeability index EC,"[1]; GluA2 mRNA/(GluA1+GluA3+GluA4 mRNA), HFD-fed mice with PER, EC, N=5",0.30 ± 0.05(N = 5)
same,"Ca2+ permeability index via CA1, CA3, DG, EC (reduced by HFD)","[1]; HFD-fed mice, PER administration, N=5",returned to CD-fed mouse levels
same,GluA2 mRNA expression in CA1 (qRT-PCR),"[1]; mice fed HFD with PER, p<0.05",significant increase
same,GluA1 expression in CA1 (immunoreactive regions),ob/ob mice,restored
same,ratio of GluA2/GluA1 (immunoreactive regions),ob/ob mice,restored
